Where a name gives a salt, the structure may show the parent alone.

A short description of data set [1]: Stability test under oxidation condition (0.3% hydrogen peroxide solution, HPLC total related substances). It counts as physicochemical. To be noted: room temperature, 24 hours, HPLC area ratio of total related substances. The source says: (§1) This experiment is designed to confirm the storage stability of the various acid salts of tolterodine.
(§2) For a pharmaceutical drug to be processed into a certain formulation it is essential to be provided with sufficient storage stability. For example, for tablets or capsules, it is necessary for them to have stability in atmospheric condition, for injections, stability in moisture (water), and for patches, both stability in atmospheric condition and in moisture (water).

Data set [2] in a line: Stability test under acid condition (HPLC total impurities). In kind it is physicochemical. The following applies: acid condition (details not described).
Text: as §1, §2

Data set [3] is described as follows: Alkali stability test (1M sodium hydroxide solution, HPLC total related substances). It counts as physicochemical. To be noted: room temperature, 24 hours, HPLC area ratio of total related substances.
Text: as §1, §2

Data set [4] is described as follows: In vitro penetration test, Frantz cell mounted with hairless mouse skin. The following applies: 10 mg/mL in propylene glycol, 32° C. The procedure: I mL of tolterodine salt was added onto a Frantz cell, which was mounted with a hairless mouse skin. Then, the amount of tolterodine penetrated through the skin at 32° C. was quantitated and its cumulative amount was measured.

For the compound `Cc1ccc(O)c(C(CCN(C(C)C)C(C)C)c2ccccc2)c1.O=C(O)c1ccc2ccccc2c1O` (stereo not drawn) [tolterodine 1-hydroxy-2-naphtate, tolterodine 1-hydroxy-2-naphthate], the “Total impurities, oxidation condition” value in data set [1] is 0.33 % area. Moreover, the “Total impurities, acid condition” value in data set [2] stood at 0.10 % area. Moreover, in data set [3], the “Total impurities, alkali condition” value is recorded as 0.15 % area.

Turning to `Cc1ccc(O)c([C@H](CCN(C(C)C)C(C)C)c2ccccc2)c1.O=C1CC[C@@H](C(=O)O)N1` [tolterodine L-pyroglutamate, Tolterodine L-Pyroglutamate], the “Total impurities, oxidation condition” value in data set [1] was found to be 0.56 % area. Moreover, in data set [2], the “Total impurities, acid condition” value worked out at 0.03 % area. The “Total impurities, alkali condition” value in data set [3] turned out to be 0.08 % area.

Consider `Cc1ccc(O)c([C@H](CCN(C(C)C)C(C)C)c2ccccc2)c1.O=C(O)c1ccccc1` [tolterodine benzoate, Tolterodine Benzoate], for which the “Total impurities, oxidation condition” value in data set [1] was 0.39 % area. The “Total impurities, acid condition” value in data set [2] was 0.02 % area. Further, the “Total impurities, alkali condition” value in data set [3] was 0.10 % area.

For `Cc1ccc(O)c([C@H](CCN(C(C)C)C(C)C)c2ccccc2)c1` [tolterodine free base, 2-[(1R)-3-(diisopropylamino)-1-phenylpropyl)-4-methylphenol, reference compound], the “Total impurities, oxidation condition” value in data set [1] was determined as 4.74 % area. The “Total impurities, acid condition” value in data set [2] is 0.59 % area. The “Total impurities, alkali condition” value in data set [3] is recorded as 0.83 % area.

Consider `Cc1ccc(O)c([C@H](CCN(C(C)C)C(C)C)c2ccccc2)c1.O=C(O)c1cc(O)ccc1O` [tolterodine gentisate, Tolterodine Gentisate], for which, in data set [1], the “Total impurities, oxidation condition” value came out at 0.23 % area. Also, the “Total impurities, acid condition” value in data set [2] amounted to 0.03 % area. Also, the “Total impurities, alkali condition” value in data set [3] stood at 0.04 % area.

Regarding `Cc1ccc(O)c([C@H](CCN(C(C)C)C(C)C)c2ccccc2)c1.Cc1ccc(O)c([C@H](CCN(C(C)C)C(C)C)c2ccccc2)c1.O=S(=O)(O)c1cccc2c(S(=O)(=O)O)cccc12` [tolterodine hemi naphthalene-1,5-disulfonate], the “Total impurities, oxidation condition” value in data set [1] worked out at 0.40 % area. Moreover, the “Total impurities, acid condition” value in data set [2] is on record as 0.07 % area. Besides, the “Total impurities, alkali condition” value in data set [3] came to 0.11 % area.

In the case of `Cc1ccc(O)c([C@H](CCN(C(C)C)C(C)C)c2ccccc2)c1.Cc1ccc(O)c([C@H](CCN(C(C)C)C(C)C)c2ccccc2)c1.O=C(O)CCCCC(=O)O` [tolterodine hemiadipate, Tolterodine Hemiadipate], the “Total impurities, oxidation condition” value in data set [1] came to 0.39 % area. Moreover, in data set [2], the “Total impurities, acid condition” value turned out to be 0.14 % area. In data set [3], the “Total impurities, alkali condition” value is 0.10 % area.

In the case of `Cc1ccc(O)c([C@H](CCN(C(C)C)C(C)C)c2ccccc2)c1.O=C(O)CNC(=O)c1ccccc1` [tolterodine hippurate, Tolterodine Hippurate], in data set [1], the “Total impurities, oxidation condition” value is recorded as 0.41 % area. Moreover, the “Total impurities, acid condition” value in data set [2] is on record as 0.11 % area. In addition, the “Total impurities, alkali condition” value in data set [3] came to 0.14 % area.

`CC1=C(/C=C/C(C)=C/C=C/C(C)=C/C(=O)O)C(C)(C)CCC1.Cc1ccc(O)c([C@H](CCN(C(C)C)C(C)C)c2ccccc2)c1` [tolterodine retinoate, Tolterodine Retinoate]: the “Total impurities, oxidation condition” value in data set [1] was determined as 0.08 % area. Besides, in data set [2], the “Total impurities, acid condition” value is reported as 0.15 % area. In data set [3], the “Total impurities, alkali condition” value came out at 0.19 % area. Further, the “Cumulative amount of tolterodine penetrated through the skin” value (from here on “Cumulative amount”) is 0.0 µg in data set [4] (0 hr); 0.5 µg in data set [4] (3 hr); 1.7 µg in data set [4] (6 hr); 2.5 µg in data set [4] (9 hr); 4.1 µg in data set [4] (12 hr).

`Cc1ccc(O)c([C@H](CCN(C(C)C)C(C)C)c2ccccc2)c1` [tolterodine tartrate, reference compound]: the “Total impurities, oxidation condition” value in data set [1] is on record as 0.98 % area. Besides, in data set [2], the “Total impurities, acid condition” value was 0.20 % area. The “Total impurities, alkali condition” value in data set [3] amounted to 0.29 % area.

As to “Tolterodine Benzene Sulfonate [tolterodine benzenesulfonate]”, the “Total impurities, oxidation condition” value in data set [1] is 0.51 % area. Also, in data set [2], the “Total impurities, acid condition” value worked out at 0.02 % area. Besides, the “Total impurities, alkali condition” value in data set [3] was 0.08 % area. Also, the “Cumulative amount” value in data set [4] (0 hr) came out at 0.0 µg; in data set [4] (3 hr) it was 0.0 µg; in data set [4] (6 hr), 0.4 µg; in data set [4] (9 hr), 0.8 µg; in data set [4] (12 hr), 1.7 µg.

As for Tolterodine Glucolate, the “Total impurities, oxidation condition” value in data set [1] was found to be 0.44 % area. Further, the “Total impurities, acid condition” value in data set [2] is given as 0.11 % area. In data set [3], the “Total impurities, alkali condition” value was 0.23 % area.

As to “Tolterodine Toluene Sulfonate [tolterodine p-toluenesulfonate]”, the “Total impurities, oxidation condition” value in data set [1] is 0.09 % area. Further, the “Total impurities, acid condition” value in data set [2] was found to be 0.11 % area. Moreover, the “Total impurities, alkali condition” value in data set [3] is reported as 0.06 % area. Moreover, the “Cumulative amount” value in data set [4] (0 hr) was found to be 0.0 µg; in data set [4] (3 hr) it was 1.1 µg; in data set [4] (6 hr), 8.0 µg; in data set [4] (9 hr) it was 19.9 µg; in data set [4] (12 hr) it was 36.6 µg.
